Test systems include A549 NSCLC; MCF7 breast; M14 melanoma; SK-MEL-2 melanoma; HS 578T breast; ACHN renal; EKVX NSCLC; MOLT-4 leukemia; SNB-75 CNS; HT29 colon.
Common to all, as to assay: growth of human tumour cells (NCI), 48 h

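Tested at 5 concentrations; 48 h exposure; 96-well plates; endpoints linearly interpolated, else capped at highest concentration. Here, GI50 denotes the concentration required for 50% inhibition of growth. At the TGI there is no net growth.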

For the compound `O=C(NNc1ccc(Cl)cc1)C1CCC(CNS(=O)(=O)c2ccccc2Cl)CC1` (stereo not given), the GI50 was 8.99 µM with A549 NSCLC; 4.88 µM in the assay on MCF7 breast; 2.89 µM in the assay with M14 melanoma; 30.9 µM in the assay on SK-MEL-2 melanoma; 65.2 µM in the assay with HS 578T breast; 16.8 µM in the assay on ACHN renal. Also, the GI50 with EKVX NSCLC was 11 µM; in the assay with MOLT-4 leukemia, 74.4 µM. For the same compound, the TGI is over 100 µM in the assay on A549 NSCLC; over 100 µM in the assay on MCF7 breast; 10.7 µM in the assay on M14 melanoma; over 100 µM with SK-MEL-2 melanoma; over 100 µM in the assay with HS 578T breast; 66.1 µM with ACHN renal. For the same compound, the figures for the TGI in the assay with EKVX NSCLC and with MOLT-4 leukemia were 56.2 µM and over 100 µM, respectively.
Take `COc1ccc(/C=C/c2c(C(=O)/C=C/c3ccc(C(F)(F)F)cc3)c(C)nc3ccccc23)cc1`: the GI50 with A549 NSCLC is 2.71 µM; with MCF7 breast, 1 µM; in the assay on SNB-75 CNS, 1.43 µM; with SK-MEL-2 melanoma, 2.05 µM; in the assay on HS 578T breast, 2.87 µM; in the assay on HT29 colon it was 1.13 µM. Besides, the values for the GI50 in the assay with ACHN renal, in the assay on EKVX NSCLC and with MOLT-4 leukemia were 1.5 µM, 1.72 µM and 1.04 µM, respectively. The TGI in the assay on A549 NSCLC was 8.57 µM; in the assay on MCF7 breast, 3.4 µM; with SNB-75 CNS, 2.85 µM; in the assay on SK-MEL-2 melanoma, 4.64 µM; in the assay on HS 578T breast it was 8.29 µM; in the assay on HT29 colon it was 6.6 µM. The TGI with ACHN renal was 2.84 µM; with EKVX NSCLC, 4.49 µM; with MOLT-4 leukemia, over 100 µM.
Consider `c1ccc(OCCC[P+](c2ccccc2)(c2ccccc2)c2ccccc2)cc1`, for which the GI50 with A549 NSCLC is 2.36 µM; in the assay with MCF7 breast it was 0.677 µM; in the assay with M14 melanoma it was 2.53 µM; in the assay on SNB-75 CNS, 1.27 µM; with SK-MEL-2 melanoma, 1.56 µM; in the assay with HS 578T breast, 2.69 µM. The GI50 in the assay with HT29 colon was 0.984 µM; with ACHN renal, 8.94 µM; with MOLT-4 leukemia, 3.12 µM. Further, the TGI with A549 NSCLC stood at 20.3 µM; in the assay with MCF7 breast it was 10.3 µM; in the assay on M14 melanoma, 18.1 µM; with SNB-75 CNS it was 6.7 µM; in the assay with SK-MEL-2 melanoma, 4.88 µM; with HS 578T breast, 28.4 µM. Also, the TGI in the assay on HT29 colon came out at 9.21 µM; with ACHN renal it was 52.8 µM; with MOLT-4 leukemia, 13.7 µM.
For `CC(C)N(Cc1ccc(CN(C(=O)CCl)C(C)C)cc1)C(=O)CCl`, the GI50 with A549 NSCLC was 2.57 µM; in the assay with MCF7 breast, 1.7 µM; with M14 melanoma, 1.86 µM; with SNB-75 CNS, 1.29 µM; in the assay on SK-MEL-2 melanoma, 2.36 µM; in the assay with HS 578T breast it was 2.75 µM. Besides, the values for the GI50 in the assay with ACHN renal, in the assay on EKVX NSCLC and in the assay with MOLT-4 leukemia were 1.88 µM, 2.36 µM and 2.33 µM, respectively. Further, the TGI in the assay on A549 NSCLC was 7.37 µM; in the assay with MCF7 breast, 12.1 µM; in the assay on M14 melanoma, 7.12 µM; with SNB-75 CNS, 2.59 µM; with SK-MEL-2 melanoma, 5.88 µM; in the assay on HS 578T breast it was 16.8 µM. The TGI with ACHN renal turned out to be 3.74 µM; in the assay on EKVX NSCLC it was 5.63 µM; in the assay with MOLT-4 leukemia, 8.13 µM.
As to `COc1ccc(-c2cncn2-c2cc(OC)c(OC)c(OC)c2)cc1`, the GI50 is 0.471 µM in the assay with A549 NSCLC; 0.179 µM in the assay on M14 melanoma; 0.045 µM in the assay on SK-MEL-2 melanoma; 0.123 µM with HS 578T breast; 0.153 µM in the assay on HT29 colon; 0.366 µM in the assay on ACHN renal. Further, the GI50 is 3.06 µM in the assay with EKVX NSCLC and 1.87 µM in the assay on MOLT-4 leukemia. For the same compound, the TGI was over 63.8 µM in the assay on A549 NSCLC; over 34.8 µM in the assay on MCF7 breast; 12.7 µM in the assay with M14 melanoma; over 100 µM in the assay with SK-MEL-2 melanoma; over 6.68 µM in the assay with HS 578T breast; over 100 µM in the assay with HT29 colon. The TGI is 49.4 µM in the assay with ACHN renal, over 100 µM in the assay with EKVX NSCLC and over 77 µM with MOLT-4 leukemia.
For the compound `CSc1nc2nc3c(nc2c(=O)n1C)C(=O)c1ccccc1C3=O`, the GI50 is 0.0387 µM in the assay with A549 NSCLC; 0.162 µM with MCF7 breast; 0.0994 µM in the assay with M14 melanoma; 0.128 µM in the assay with SNB-75 CNS; 0.207 µM in the assay with SK-MEL-2 melanoma; 0.226 µM in the assay on HS 578T breast. Also, the GI50 in the assay on HT29 colon was 0.253 µM; in the assay with ACHN renal, 0.299 µM; with MOLT-4 leukemia it was 0.227 µM. The TGI with A549 NSCLC was 0.184 µM; in the assay on MCF7 breast, 0.384 µM; in the assay with M14 melanoma it was 0.252 µM; with SNB-75 CNS, 0.266 µM; in the assay with SK-MEL-2 melanoma, 0.471 µM; with HS 578T breast, 0.678 µM. Moreover, the TGI turned out to be 0.637 µM with HT29 colon, 1.04 µM in the assay on ACHN renal and 0.581 µM in the assay on MOLT-4 leukemia.
For the compound `Nc1nc2c(C(=O)NCc3cccs3)nnn2c2cccc(Cl)c12`, the TGI in the assay with A549 NSCLC, with MCF7 breast, in the assay on M14 melanoma, in the assay with SK-MEL-2 melanoma, in the assay with HS 578T breast and in the assay on HT29 colon was over 100 µM in each case. The TGI in the assay with ACHN renal, with EKVX NSCLC and with MOLT-4 leukemia was over 100 µM throughout.
Consider `CC(=O)OC12C=C(C)C(C(C)C1)C1C(=O)N(CCN3CCCCC3)C(=O)C12` (stereo not given), for which the GI50 in the assay with A549 NSCLC is over 50 µM; in the assay on M14 melanoma, over 50 µM; with SNB-75 CNS, over 50 µM; with SK-MEL-2 melanoma it was over 50 µM; with HS 578T breast, 48 µM; with HT29 colon it was over 50 µM. In addition, the GI50 with ACHN renal, in the assay on EKVX NSCLC and with MOLT-4 leukemia was over 50 µM in each case. The TGI with A549 NSCLC, with M14 melanoma, with SNB-75 CNS, in the assay with SK-MEL-2 melanoma, with HS 578T breast and with HT29 colon was over 50 µM in each case. Also, the TGI with ACHN renal, with EKVX NSCLC and in the assay with MOLT-4 leukemia was over 50 µM throughout.
Consider `CS(=O)(=O)c1ccc(Nc2nc(N[C@H]3CCCC[C@H]3N)nc3cc[nH]c(=O)c23)cc1`, for which the GI50 with A549 NSCLC is 3.87 µM; in the assay on MCF7 breast, 0.326 µM; in the assay on M14 melanoma, 2.16 µM; with SNB-75 CNS, 1.29 µM; in the assay on HS 578T breast, 1.25 µM; in the assay on HT29 colon, 2.48 µM. For the same compound, the GI50 in the assay with ACHN renal was 5.24 µM; in the assay on EKVX NSCLC it was 1.3 µM; with MOLT-4 leukemia it was 2.95 µM. For the same compound, the TGI with A549 NSCLC was over 100 µM; in the assay with MCF7 breast, 13.4 µM; in the assay with M14 melanoma, 8.83 µM; in the assay on SNB-75 CNS it was 3.51 µM; with HS 578T breast, 4.95 µM; in the assay with HT29 colon it was 11.8 µM. The TGI in the assay on ACHN renal came to 90.1 µM; with EKVX NSCLC, 5.41 µM; with MOLT-4 leukemia it was 17.5 µM.

Values taken from PubChem BioAssay (NCI).
